{"source": "PubChem BioAssay AID489022", "about": "(Sanford-Burnham Center for Chemical Genomics, 2010)", "note": "Calls of active or inactive are those of the source. No rule for the calls is given here.", "data": [{"tested_on": "HEK-293T NF-kB luciferase reporter, luminescence counterscreen", "test": "inhibitors of NF-kB luciferase reporter, HEK-293T, dose response, counter-screen for BCR NF-kB inhibitor project, luminescence, B-cell screen hits (AID 489022)", "values": [{"smiles": "CCn1c(=O)cc(SCC(=O)N2CCN(C(=O)c3ccco3)CC2)c2ccccc21", "IC50": "40.9 µM (inactive)"}, {"smiles": "Cc1ccc(-c2nn3c(C)nnc3c3ccccc23)cc1S(=O)(=O)N1CCN(CCO)CC1", "IC50": "22.4 µM (inactive)"}, {"smiles": "COC(=O)c1c(-c2ccc(N(C)C)cc2)sc2ccc(OC)cc12", "IC50": "> 80 µM (inactive)"}, {"smiles": "COc1ccc(-c2noc(N3CCC(C(=O)Nc4ccc(OC)c(OC)c4)CC3)n2)cc1", "IC50": "> 80 µM (inactive)"}, {"smiles": "Cn1c(=NC(=O)CCl)sc2ccccc21", "IC50": "21.6 µM (inactive)"}, {"smiles": "Cc1cccc(C(=O)Nc2ccc(CC(=O)O)cc2)c1", "IC50": "45.2 µM (inactive)"}, {"smiles": "CC(C)C[C@@H](N)c1nnc(SCC(=O)c2ccc(Cl)cc2)o1", "IC50": "31.9 µM (inactive)"}, {"smiles": "CCOC(=O)CNC(=O)CSc1nnc(NC(=O)c2ccc(C)cc2)s1", "IC50": "7.13 µM"}, {"smiles": "CCOCCCNc1nc2c(C)cccn2c(=O)c1/C=C1\\SC(=S)N(C(C)CC)C1=O", "note": "(stereo unspecified)", "IC50": "> 80 µM (inactive)"}, {"smiles": "COc1ccc(/C=C2\\SC(=S)N(CCC(=O)Nc3ccc(C(=O)O)cc3)C2=O)cc1OC", "IC50": "> 80 µM (inactive)"}, {"smiles": "CCC(C)N1C(=O)/C(=C/c2c(NCCCOC(C)C)nc3c(C)cccn3c2=O)SC1=S", "note": "(stereo unspecified)", "IC50": "> 80 µM (inactive)"}, {"smiles": "Cc1c(CCO)c(=O)oc2n[nH]c(-c3ccccc3)c12", "IC50": "> 80 µM (inactive)"}, {"smiles": "CCn1c(=S)[nH]c2cc(S(=O)(=O)N3CCCCC3)ccc21", "IC50": "33.9 µM (inactive)"}, {"smiles": "COc1ccc(NC(=O)c2nnn(Cc3cccc(F)c3)c2N)c(OC)c1", "IC50": "> 80 µM (inactive)"}, {"smiles": "COc1ccc(-n2c(-c3ccc(Cl)cc3)c[n+]3c2CCc2ccccc2-3)cc1", "IC50": "3.18 µM"}, {"smiles": "CN(C)C(=O)CCc1nc(-c2ccc(C(C)(C)C)cc2)no1", "IC50": "51.8 µM (inactive)"}, {"smiles": "Cc1ccc(CSc2nnc(SCC(=O)N/N=C/C=C/c3ccccc3[N+](=O)[O-])s2)cc1", "IC50": "34.8 µM (inactive)"}, {"smiles": "Cc1cc(OCC(=O)N2CCC(C(N)=O)CC2)c2c3c(c(=O)oc2c1)CCCC3", "IC50": "> 80 µM (inactive)"}, {"smiles": "Cc1ccc(/C=C2\\SC(=S)N(CCCC(=O)Nc3ccccn3)C2=O)cc1", "IC50": "32.1 µM (inactive)"}, {"smiles": "COc1ccc(C(=O)Nc2nnc(Cc3cccs3)s2)cc1OC", "IC50": "> 80 µM (inactive)"}, {"smiles": "Cc1cc(OC(=O)c2ccccc2Cl)cc(=O)n1C", "IC50": "> 80 µM (inactive)"}, {"smiles": "CCn1c(CN2CCN(c3ccc(Cl)cc3)CC2)nc2ccccc21", "IC50": "9.25 µM"}, {"smiles": "COc1cc(-c2nc(C(=O)NCC3CCCO3)cc3c2[nH]c2ccccc23)cc(OC)c1OC", "note": "(stereo unspecified)", "IC50": "13.7 µM"}, {"smiles": "CCOc1ccc(-c2nc(CSCC(=O)NCc3ccco3)c(C)o2)cc1", "IC50": "18.9 µM"}, {"smiles": "CCC(=O)N1c2ccccc2[C@@H](N(C(C)=O)c2ccccc2)C[C@H]1C", "IC50": "39.2 µM (inactive)"}, {"smiles": "Cc1nn(-c2ccc(N3CCCCC3)nn2)c(C)c1CCC(=O)Nc1ccccc1F", "IC50": "73.3 µM (inactive)"}, {"smiles": "CC1CCN(C(=O)CCCOc2cc(=O)n(C)c3ccccc23)CC1", "IC50": "> 80 µM (inactive)"}, {"smiles": "CCN1CCN(C(=O)CSc2cc(=O)n(CC)c3ccccc23)CC1", "IC50": "> 80 µM (inactive)"}, {"smiles": "Cn1c(=O)n(C)c2cc(NC(=O)CSc3nnc(-c4ccccc4O)n3-c3ccccc3)ccc21", "IC50": "18.2 µM"}, {"smiles": "CCN(CC(=O)Nc1c(F)cccc1F)C(=O)c1cc([N+](=O)[O-])ccc1N1CCCCC1", "IC50": "> 80 µM (inactive)"}, {"smiles": "CC1Cc2ccccc2N1S(=O)(=O)c1cnc(Cl)c(Br)c1", "note": "(stereo unspecified)", "IC50": "41.6 µM (inactive)"}, {"smiles": "O=C(CCCN1C(=O)/C(=C/c2ccccc2Cl)SC1=S)Nc1cccnc1", "IC50": "28.7 µM (inactive)"}, {"smiles": "CC1CCc2c(sc3nc(C(C)(C)C)nc(N4CCN(C(=O)CCl)CC4)c23)C1", "note": "(stereo unspecified)", "IC50": "30.6 µM (inactive)"}, {"smiles": "CC(=O)Nc1ccc(Nc2nc(-c3sc(NC(C)=O)nc3C)cs2)cc1", "IC50": "47.1 µM (inactive)"}, {"smiles": "CCOc1ccc(-c2noc(CCC(=O)O)n2)cc1", "IC50": "8.98 µM"}, {"smiles": "Cc1ccc(NC(=O)O/N=C/c2c(C)nn(C(C)(C)C)c2C)cc1Cl", "IC50": "< 0.16 µM"}, {"smiles": "COc1ccc(/C=C\\C(=O)O[C@@H]2C(O)C(O[C@@H]3OC(C)[C@H](O[C@@H]4OCC(O[C@H]5O[C@H](CO)[C@@H](O)C(O)C5O)C(O)C4O)C(O)C3O)[C@H](OC(=O)[C@]34CCC(C)(C)C[C@@H]3C3=CCC5[C@@]6(C)CC(O)C(O[C@@H]7OC(CO)C(O)[C@H](O)[C@H]7O)[C@@](C)(C(=O)O)C6CC[C@@]5(C)[C@]3(CO)CC4)O[C@H]2C)cc1", "note": "(stereo partly specified)", "IC50": "45.7 µM (inactive)"}, {"smiles": "COc1cc(-c2[nH]nc3c2C(c2ccco2)C(C#N)=C(N)O3)cc(OC)c1OC", "note": "(stereo unspecified)", "IC50": "> 80 µM (inactive)"}, {"smiles": "CCC(=O)N1c2ccccc2C(N(C(C)=O)c2ccccc2)CC1C", "note": "(stereo unspecified)", "IC50": "> 80 µM (inactive)"}, {"smiles": "Cn1c(=O)n(C)c2cc(C(=O)Nc3ccc4c(c3)OCO4)ccc21", "IC50": "> 80 µM (inactive)"}, {"smiles": "C=C1C(=O)[C@@]23C[C@H]4[C@@H]5[C@@]6(C)CCC[C@@]57[C@@H]2[C@@H](O)[C@@H]1C[C@H]3[C@H]7N4C6", "IC50": "17.3 µM"}, {"smiles": "Cc1nn(C)c(C)c1CN(C)S(=O)(=O)c1ccc2ccccc2c1", "IC50": "0.36 µM"}, {"smiles": "C=CCOc1ccccc1CN(C(=O)CCl)c1ccc2c(c1)OCO2", "IC50": "28.1 µM (inactive)"}, {"smiles": "COc1ccc(NC(=O)CN(C)C(=O)C2(c3ccccc3)CCCC2)cc1", "IC50": "21.3 µM (inactive)"}, {"smiles": "O=C(CCCc1nc(-c2ccccc2Cl)no1)NC1CCCC1", "IC50": "27.1 µM (inactive)"}, {"smiles": "CCOC(=O)/C=C(\\C)Sc1cc(=O)oc2ccccc12", "IC50": "10.5 µM"}]}]}
